Where two headings read alike, the source gives them in different places.
Target: T1, indoleamine 2,3-dioxygenase (IDO) (Homo sapiens, UniProt P14902)
T1 construct: media containing IFNγ (#285-IF/CF, R&D Systems) at a final concentration of 25 ng/mL; endogenous in cells; host or cells: HeLa (ATCC CCL-2), induced with IFN-gamma
Assay: HeLa cell-based indoleamine 2,3-dioxygenase (IDO) assay
Conditions: HeLa cells with IFNγ 25 ng/mL, 48 hour incubation, kynurenine production
Protocol: Assessment of Inhibitor Activity in HeLa Cell-Based Indoleamine 2,3-Dioxygenase (IDO) Assay.
HeLa (ATCCR CCL-2) cells were obtained from the ATCC® and cultured in Dulbecco's Modified Eagle Medium supplemented with 4.5 g/L glucose, […] L-glutamine and […] (#10-013-CV, Corning), 2 mM L-alanyl-L-glutamine dipeptide (#35050-061, Gibco), 100U/mL penicillin, 100 µg/mL streptomycin (#SV30010, HyClone) and 10% fetal bovine serum (#SH30071.03 HyClone). Cells were maintained in a humidified incubator at 37° C. in 5% CO2.
IDO activity was assessed as a function of kynurenine production as follows: HeLa cells were seeded in a 96-well culture plate at a density of 5,000 cells/well and allowed to equilibrate overnight. After 24 hours, the media was aspirated and replaced with media containing IFNγ (#285-IF/CF, R&D Systems) at a final concentration of 25 ng/mL. A serial dilution of each test compound was added to the cells in a total volume of 200 μL of culture medium. After a further 48 hour incubation, 170 μL of supernatant was transferred from each well to a fresh 96-well plate. 12.1 μL of 6. IN trichloroacetic acid (#T0699, Sigma-Aldrich) was added to each well and mixed, followed by incubation at 65° C. for 20 minutes to hydrolyze N-formylkynurenine, the product of indoleamine 2,3-dioxygenase, to kynurenine. The reaction mixture was then centrifuged for 10 mins at 500×g to sediment the precipitate. 100 μL of the supernatant was transferred from each well to a fresh 96-well plate. 100 μl of 2% (w/v) p-dimethylaminobenzaldehyde (#15647-7, Sigma-Aldrich) in acetic acid (#A6283, Sigma-Aldrich) was added to each well mixed and incubated at room temperature for 20 mins. Kynurenine concentrations were determined by measuring absorbance at 480 nm and calibrating against an L-kynurenine (#K8625, Sigma-Aldrich) standard curve using a SPECTRAMAX® M2e microplate reader (Molecular Devices). The percentage activity at each inhibitor concentration was determined and IC50 values assessed using nonlinear regression.

[1] = read-out: IDO Hela IC50 potency class (A < 50, B < 250, C < 2000)

T1 sequence (P14902 whole entry): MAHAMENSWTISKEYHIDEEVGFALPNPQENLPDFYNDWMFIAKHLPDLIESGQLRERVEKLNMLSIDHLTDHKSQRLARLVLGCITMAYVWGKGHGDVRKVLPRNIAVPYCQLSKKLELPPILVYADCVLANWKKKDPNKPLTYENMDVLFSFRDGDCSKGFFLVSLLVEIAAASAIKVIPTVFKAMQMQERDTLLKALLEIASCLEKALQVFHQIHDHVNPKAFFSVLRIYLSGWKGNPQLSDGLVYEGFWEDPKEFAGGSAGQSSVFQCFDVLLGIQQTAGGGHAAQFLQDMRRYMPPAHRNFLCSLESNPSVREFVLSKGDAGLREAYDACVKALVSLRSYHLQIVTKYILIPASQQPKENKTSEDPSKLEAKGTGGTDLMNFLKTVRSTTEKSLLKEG

Compound	IC50 (read-out: IDO Hela IC50)	IC50 [1]
CC[C@H](CC(=O)O)c1ccc(-c2cnn(C)c2)c(Nc2ccc(C#N)cc2)c1 (single isomer, unassigned) [Example 5]	110 nM	
CC[C@H](CC(=O)O)c1ccc(-c2cnn(C)c2)c(Nc2ccc(Cl)cn2)c1 (single isomer, unassigned) [Example 6]	470 nM	
CC[C@H](CC(=O)O)c1ccc(-c2cnn(C)c2)c(Nc2cccc(Cl)c2)c1 (single isomer, unassigned) [Example 7]	≥ 1000 nM	250 to 2000 nM
CC[C@H](CC(=O)O)c1ccc(-c2cnn(C)c2)c(Nc2cccc(F)c2)c1 (single isomer, unassigned) [Example 8]	380 nM	
CC[C@H](CC(=O)O)c1ccc(-c2cnn(C)c2)c(Nc2cccnc2)c1 (single isomer, unassigned) [Example 11]	≥ 1000 nM	250 to 2000 nM
CC[C@H](CC(=O)O)c1ccc(-c2cnn(C)c2)c(Nc2cnc(C)nc2)c1 (single isomer, unassigned) [Example 12]	≥ 1000 nM	250 to 2000 nM
CCc1ncc(Nc2cc([C@H](CC)CC(=O)O)ccc2-c2cnn(C)c2)cn1 (single isomer, unassigned) [Example 13]	≥ 1000 nM	250 to 2000 nM
CC[C@H](CC(=O)O)c1ccc(-c2cnn(C)c2)c(Nc2ccccn2)c1 (single isomer, unassigned) [Example 15]	≥ 1000 nM	250 to 2000 nM
CC[C@H](CC(=O)O)c1ccc(-c2cnn(C)c2)c(Nc2ccc(C#N)cn2)c1 (single isomer, unassigned) [Example 16]	≥ 1000 nM	250 to 2000 nM
CC[C@H](CC(=O)O)c1ccc(-c2nc(C)cs2)c(Nc2ccc(Cl)cc2)c1 (single isomer, unassigned) [Example 19]	≥ 1000 nM	250 to 2000 nM
CC[C@H](CC(=O)O)c1ccc(-c2nccs2)c(Nc2ccc(Cl)cc2)c1 (single isomer, unassigned) [Example 21]	≥ 1000 nM	250 to 2000 nM
CC[C@H](CC(=O)O)c1ccc(-c2cnn(C)c2)c(NC(=O)Nc2ccc(Cl)cc2F)c1 (single isomer, unassigned) [Example 23]	≥ 1000 nM	250 to 2000 nM
CC[C@H](CC(=O)O)c1ccc(-c2cnn(C(C)C)c2)c(NC(=O)Nc2ccc(Cl)cc2F)c1 (single isomer, unassigned) [Example 24]	≥ 1000 nM	250 to 2000 nM

Compounds with a lower IC50 (read-out: IDO Hela IC50), results first:

IC50 (read-out: IDO Hela IC50)	IC50 [1]	Compound
10 nM		CC[C@H](CC(=O)O)c1ccc(-c2cnn(C)c2)c(Nc2ccc(Cl)cc2F)c1 (single isomer, unassigned) [Example 2]
40 nM		CC[C@H](CC(=O)O)c1ccc(-c2cnn(C)c2)c(Nc2ccc(F)cc2)c1 (single isomer, unassigned) [Example 3]
10 nM		CC[C@H](CC(=O)O)c1ccc(-c2cnn(C)c2)c(Nc2ccc(Cl)cc2)c1 (single isomer, unassigned) [Example 4]
20 nM		CC[C@H](CC(=O)O)c1ccc(-c2cnn(C)c2)c(Nc2ccc(Cl)c(F)c2)c1 (single isomer, unassigned) [Example 9]
40 nM		CC[C@H](CC(=O)O)c1ccc(-c2cnn(C)c2)c(Nc2ccc(C)cc2)c1 (single isomer, unassigned) [Example 10]
40 nM		CC[C@H](CC(=O)O)c1ccc(-c2cnn(C)c2)c(Nc2ccc(C(F)(F)F)cc2)c1 (single isomer, unassigned) [Example 14]
10 nM		CC[C@H](CC(=O)O)c1ccc(-c2c(C)noc2C)c(Nc2ccc(Cl)cc2)c1 (single isomer, unassigned) [Example 17]
70 nM		CC[C@H](CC(=O)O)c1ccc(-c2cn[nH]c2)c(Nc2ccc(Cl)cc2)c1 (single isomer, unassigned) [Example 18]
30 nM		CC[C@H](CC(=O)O)c1ccc(-c2nc(-c3ccccc3)cs2)c(Nc2ccc(Cl)cc2)c1 (single isomer, unassigned) [Example 20]
30 nM		CC[C@H](CC(=O)O)c1ccc(-c2nnc(C)s2)c(Nc2ccc(Cl)cc2)c1 (single isomer, unassigned) [Example 22]

Reference: patent publication US10959986B2, “Inhibitors of indoleamine 2,3-dioxygenase and methods of their use” (BRISTOL-MYERS SQUIBB COMPANY, priority 2018, dated 2021)
